Where “and” joins values, the source holds several entries; their conditions need not be identical. Equal entries are not always repeated.
Experiments:
[1] = tested on: mouse splenocytes; experiment: In vitro sensitivity of mouse splenocytes; assay type: cell-based; conditions: BALB/c and C57BL/6 splenocytes, 24 hours
Protocol: Mouse splenocytes were plated at a density of 5×10^5 cells per well in a 48-well plate with 30 U/mL IL-2. Cells were cultured for 24 hours and then increasing concentrations of venetoclax were added for an additional 24 hours (DMSO was used as control). Cells were harvested, stained and subjected to flow cytometry analysis with an LSRFortessa™ X-20 instrument (BD Biosciences).
To further explore the mechanism for immune modulation in mice, splenocytes from BALB/c and C57BL/6 mice were treated in vitro with venetoclax for 24 hours. The two types of memory T-cells in mice are central memory (TCM; […]) and effector memory T-cells (TEM; […]). While naïve T-cells (CD62L^+CD44^−) were sensitive to venetoclax, effector memory T-cells were not and, importantly, their proportion increased relative to surviving T-cells with increased concentrations of venetoclax. Central memory T-cells were not affected by venetoclax under these experimental conditions (FIG. 9).

[2] = tested on: T-cell subsets in peripheral blood; experiment: T-cell subsets in peripheral blood of healthy volunteers; assay type: in vivo, human; design: key: ↑: increase; ↓: decrease; ≈: no change; conditions: one dose of 100 mg (or dose-equivalent); one day pre- vs seven days post-treatment; per subject
Protocol: In a clinical study sponsored by AbbVie Inc. healthy volunteers were administered with one dose of 100 mg of Compound (I) (venetoclax) or a dose-equivalent of Compound (IV) in a solid formulation to deliver 100 mg of Compound (I). T-cell subsets in peripheral blood were measured one day pre- and seven days post-treatment by flow cytometry. In most of the tested subjects the fraction of CD4+ and CD8+ T effector memory and terminally differentiated effector memory cells increased, the proportion of CD8+ naïve T-cells has remained unchanged or decreased, and the proportion of CD4+ and CD8+ central memory T cells has decreased following treatment with either agent (Table 7 and FIG. 13).

[3] = tested on: B-lymphocytes and T-cell populations; conditions: cited from earlier work
[4] = tested on: CT26, MC38 and EMT6 cells; experiment: In vitro sensitivity of CT26, EMT6 and MC38 cells (FIG. 1); assay type: cell-based, mouse; conditions: increasing doses, CellTiter-Glo after 72 hours
Protocol: FIG. 1: In vitro sensitivity of CT26, EMT6 and MC38 cells to Compound (I). […] CT26, MC38 and EMT6 cells were incubated with increasing doses of Compound (I) and viability was measured using CellTiter®-Glo (Promega) after 72 hours as described in Example 1.
Cancer Immunol Res. 5; 29-41 (2017)). Any reduction in checkpoint inhibitor-mediated tumor growth inhibition or response rates caused by the addition of venetoclax would indicate potential antagonism. The panel was composed of syngeneic models of solid tumors: CT26, MC38 (both colorectal carcinoma) and EMT6 (breast cancer). […] Likewise, only modest anti-tumor activity could be observed in these models with venetoclax alone, dosed daily at 50 mg/kg for 14 days (FIG. 3, FIG. 6, FIGS. 12A, 12B, 12C, and 12D). […] Rather, it enhanced their efficacy in certain cases.

[5] = tested on: CMV-positive human PBMCs; experiment: CMV recall assay using human CMV+ PBMC; assay type: cell-based
Protocol: The cytomegalovirus (CMV) recall assay was used to assess the functional effects of Compound (I) on antigen-specific immune cells. This assay used CMV antigen to stimulate pre-existing memory T-cells in CMV-positive human PBMCs. Human CMV-positive PBMCs and CMV antigen were purchased from Astarte Biologics (Cat.No:1001 and Cat. No. 1004, respectively). To measure whether T cells from CMV-positive donor are functionally active, 2×10^5 CMV-positive PBMCs were stimulated with 0.05 μg/mL of CMV antigen and at the same time venetoclax was added. The cells were cultured in Roswell Park Memorial Institute (RPMI) media supplemented with 10% fetal bovine serum (FBS). On day 4, cells were quickly re-stimulated with phorbol 12-myristate-13-acetate (PMA, 0.08 μM)/ionomycin (1.3 μM) and treated with brefeldin A (5 μg/mL) for 4 hours. Cells were stained with the following commercial antibodies: CD3, CD4, IFNγ, and IL-2 (all from Biolegend), as well as with the Zombie Green™ fixable viability kit. Cells were analyzed using an LSRFortessa™ X-20 instrument (BD Biosciences).
The remaining live cells were gated by CD3 and CD4 expression whereas CD3^+CD4^+ cells were considered as CD4^+ T-cells and CD3^+CD4^− cells were considered as CD8^+ T-cells. Production of IFNγ and IL-2 cytokines by CD8+ T-cells was assessed by flow cytometry (FIG. 10B, 10C).

[6] = tested on: EMT6 tumors; experiment: EMT6 mouse mammary carcinoma syngeneic model; assay type: in vivo; conditions: EMT6; venetoclax 50 mg/kg daily for 14 days
Protocol: All experiments were conducted in compliance with the National Institutes of Health Guide for Care and Use of Laboratory Animals guidelines in a facility accredited by the Association for the Assessment and Accreditation of Laboratory Animal Care (AAALAC). BALB/c, C57BL/6, CB6F1 (C57BL/6 bred with BALB/c) and SCID mice were obtained from Charles River (Wilmington, Mass.). SCID mice have severe combined immune deficiency (SCID) and are characterized by an absence of functional T- and B-cells.
EMT6, mouse mammary carcinoma and CT26, mouse colon carcinoma, cell lines were obtained from ATCC (Manassas, Va.). MC38, mouse colon carcinoma cell line was obtained from National Cancer Institute (NCI).
Compound (I),venetoclax, was formulated in 10% ethanol+30% PEG 400+60% Phosal® 50PG. Venetoclax was administered orally once a day for 14 days at 50 mg/kg/day.
1×10^5 CT26, EMT6 or MC38 cells were subcutaneously injected with Matrigel into the flanks of BALB/c, CB6F1 or C57BL/6 mice, respectively. Seven days later, mice were randomized to treatment groups of vehicle, venetoclax, anti-PD-1/PD-L1 or the combination of venetoclax and anti-PD-1/PD-L1. Tumor volume was determined via measurements of the length (L) and width (W) of the tumor with electronic calipers and the volume was calculated according to the following equation: V=L×W2/2 using Study Director Version 2.1.11 (Studylog Systems Inc., South San Francisco). Complete response (CR) was defined as reduction in tumor volume to ≤25 mm^3 over at least 3 successive measurements.

SMILES: CC1(C)CCC(CN2CCN(c3ccc(C(=O)NS(=O)(=O)c4ccc(NCC5CCOCC5)c([N+](=O)[O-])c4)c(Oc4cnc5[nH]ccc5c4)c3)CC2)=C(c2ccc(Cl)cc2)C1 [Compound (I), venetoclax]
- central memory T-cells [1]: not affected
- sensitivity of naïve T-cells [1]: sensitive
- proportion of effector memory T-cells relative to surviving T-cells ([1]; increased concentrations): increased
- CD4+ T-Cells TCM [2]: ↓
- CD4+ T-Cells TEM [2]: ↑
- CD4+ T-Cells TEMRA [2]: ↑ and ≈ (2×)
- CD4+ T-Cells TN [2]: ≈ and ↑ and ↓
- CD8+ T-Cells TCM [2]: ↓
- CD8+ T-Cells TEM [2]: ↑
- CD8+ T-Cells TEMRA [2]: ↑ (2×) and ≈
- CD8+ T-Cells TN [2]: ↓ and ≈ (2×)
- reductions in T-cell populations ([3]; Lu et al. 2017, Khaw et al. 2014): up to 30%
- reductions in B-lymphocytes ([3]; clinically and in experimental studies): significant reductions
- in vitro sensitivity (viability) [4]: resistant
- in vitro sensitivity (viability) ([4]; listed as venetoclax): None of these tumor cell lines exhibited sensitivity
- total number of lymphocytes ([5]; 0.05 μg/mL CMV antigen, day 4): reduced the total number of lymphocytes in a dose-dependent manner
- remaining T-cell activation, MFI of IFNγ and IL-2 (CD8+ T-cells) ([5]; CMV antigen, re-stimulated with PMA/ionomycin on day 4): dose-dependent inversely proportional increase
- anti-tumor activity as single agent [6]: modest activity
